In patent publication US7803801B2, “Aminopyridine compounds having Syk inhibitory activity” (Japan Tobacco, Inc., priority 2005, dated 2010):
Like-named read-outs stand apart in the source and are kept apart here.

Target: GST-Syk Full Protein (human) (Homo sapiens, UniProt P43405)
Assay: Syk kinase inhibition test (HTRF method)
Format: biochemical
Conditions: read-out: sykHTRF ave IC50
Experimental: Syk Kinase Inhibition Test (HTRF Method)
After the compounds were serially diluted with dimethylsulfoxide (DMSO), 10 μL of those 10-fold diluted with kinase buffer (20 mM HEPES pH 7.0, 10 mM MgCl2, 50 mM NaCl, 1 mM 2-ME, 0.05% BSA) was added to opti-plate HTRF-96 (Packard) (final DMSO concentration: 2%). 20 μL of a substrate solution (kinase buffer as mentioned above containing Syk Specific-Peptide Substrate Biot-EDPDYEWPSA-NH2 (Peptide Laboratory) 625 nM, 250 μM ATP (SIGMA) was added (final substrate concentration 250 nM, 100 μM ATP), and further 20 μL of an enzyme solution (kinase buffer as mentioned above containing GST-Syk Full Protein (human) 16 nM) (final concentration 6.4 nM) was added and the mixture was immediately stirred with a plate shaker to start enzyme reaction. After reacted at room temperature (20 to 25° C.) for 30 minutes, the enzyme reaction was terminated by adding 100 μL/well of a buffer for terminating and detecting the reaction (30 mM HEPES pH 7.0, 150 mM KF, 0.15% BSA, 0.075% Tween-20, 75 mM EDTA) containing HTRF reagent (5 μg/ml XL665-Streptavidin (CIS bio), 170 ng/ml Eu(K)-anti-PhosphoTyrosin, PT-66 (CIS bio)) (final concentration 20 mM HEPES pH 7.0, 100 mM KF, 0.1% BSA, 0.05% Tween-20, 50 mM EDTA). After allowed to stand still at room temperature for 1 hour, inhibitory effect of a compound against Syk kinase enzymatic activity was evaluated by measuring 665/620 fluorescence ratio to excitation light at 337 nm by ARVO (Wallac).

[1] = HTRF, 100 μM ATP, 30 min room temperature, average

| Compound | IC50 [1] [nM] | IC50 (Tables 1-x, compounds A) [nM] |
| --- | --- | --- |
| Cc1ccnc(Nc2cccc(-c3cnc([C@H](Cc4ccc(OCc5ccccc5)cc4)NC(=O)OC(C)(C)C)s3)n2)c1 [Compound A-85] | > 1000 |  |
| Cc1ccnc(Nc2cccc(-c3cnc([C@H](CCC(=O)OCc4ccccc4)NC(=O)OC(C)(C)C)s3)n2)c1 [Compound A-96] | > 1000 |  |
| CCOC(=O)c1nc([C@H](C)NC(=O)OC(C)(C)C)sc1-c1cccc(Nc2cc(C)ccn2)n1 [Compound A-100] | > 1000 |  |
| CC(=O)N[C@@H](C)c1nc(C(=O)O)c(-c2cccc(Nc3cc(C)ccn3)n2)s1 [Compound A-109] | > 1000 |  |
| CON(C)C(=O)c1nc([C@H](C)NC(C)=O)sc1-c1cccc(Nc2cc(C)ccn2)n1 [Compound A-125] | > 1000 |  |
| Cc1ccnc(Nc2cccc(-c3cnc(CCc4ccc(OCc5ccccc5)cc4)s3)n2)c1 [Compound A-133] | > 1000 |  |
| COC(=O)c1ccc(CCc2ncc(-c3cccc(Nc4cc(C)ccn4)n3)s2)cc1 [Compound A-149] | > 1000 |  |
| Cc1cccnc1Nc1cccc(-c2cnc([C@H](C)O)s2)n1 [Compound A-327] | > 1000 |  |
| Cc1ccnc(Nc2cccc(-c3cnc([C@@H](N)Cc4ccc(O)cc4)s3)n2)c1 [Compound A-389] |  | 100 to 1000 |
| Cc1ccnc(Nc2cccc(-c3cnc(N4CCNCC4)s3)n2)c1 [Compound A-406] |  | 100 to 1000 |
| CCOC(=O)N1CCC(N(C)c2ncc(-c3cccc(Nc4cc(C)ccn4)n3)s2)CC1 [Compound A-445] |  | 100 to 1000 |
| Cc1ccnc(Nc2cccc(-c3cnc(N(C)C4CCC(C(=O)N(C)C)CC4)s3)n2)c1 (stereo not drawn) [Compound A-447] |  | 100 to 1000 |
| Cc1ccnc(Nc2cccc(-c3cnc(N4CCC(C(=O)N(CCO)CCO)CC4)s3)n2)c1 [Compound A-449] |  | 100 to 1000 |
| Cc1ccnc(Nc2cccc(-c3cnc(N4CCC(C(=O)N5CCNC(=O)C5)CC4)s3)n2)c1 [Compound A-453, 4-(1-{5-[6-(4-methylpyridin-2-ylamino)pyridin-2-yl]thiazol-2-yl}piperidine-4-carbonyl)piperazin-2-one] |  | < 100 |
| Cc1ccnc(Nc2cccc(-c3cnc(N4CCC(C(=O)N5CCOCC5)CC4)s3)n2)c1 [Compound A-454] |  | 100 to 1000 |
| Cc1ccnc(Nc2cccc(-c3cnc(N4CCC(C5=NC(C)(C)CO5)CC4)s3)n2)c1 [Compound A-456] |  | 100 to 1000 |
| Cc1ccnc(Nc2cccc(-c3cnc(N(C)Cc4ccc(OCc5ccccc5)cc4)s3)n2)c1 [Compound A-462] |  | 100 to 1000 |
| Cc1ccnc(Nc2cccc(-c3cnc(N4CCN(CC(=O)OC(C)(C)C)C(=O)C4)s3)n2)c1 [Compound A-463] |  | 100 to 1000 |

| Compound | IC50 [1] [nM] | IC50 (Tables 1-x, compounds A) [nM] |
| --- | --- | --- |
| Cc1ccnc(Nc2cccc(-c3cnc(N4CCN(CC(=O)N(C)C)C(=O)C4)s3)n2)c1 [Compound A-467] |  | 100 to 1000 |
| COCC1CCCN(c2ncc(-c3cccc(Nc4cc(C)ccn4)n3)s2)C1 (stereo not drawn) [Compound A-481, N-{6-[2-(3-methoxymethylpiperidin-1-yl)thiazol-5-yl]pyridin-2-yl}-N-(4-methylpyridin-2-yl)amine] |  | < 100 |
| Cc1ccnc(Nc2cccc(-c3cnc(N4CCC(NS(C)(=O)=O)CC4)s3)n2)c1 [Compound A-484, N-(1-{5-[6-(4-methylpyridin-2-ylamino)pyridin-2-yl]thiazol-2-yl}piperidin-4-yl)methanesulfonamide] |  | < 100 |
| CNC(=O)C1CCC(N(C)c2ncc(-c3cccc(Nc4cc(C)ccn4)n3)s2)CC1 (stereo not drawn) [Compound A-492, N-methyl-4-(N′-methyl-N′-{5-[6-(4-methylpyridin-2-ylamino)pyridin-2-yl]thiazol-2-yl}amino)cyclohexanecarboxamide] |  | < 100 |
| Cc1ccnc(Nc2cccc(-c3cnc(N(C)C4CCC(C(=O)NCCO)CC4)s3)n2)c1 (stereo not drawn) [Compound A-493, N-(2-hydroxyethyl)-4(N′-methyl-N′-{5-[6-(4-methylpyridin-2-ylamino)pyridin-2-yl]thiazol-2-yl}amino)cyclohexanecarboxamide] |  | < 100 |
| CC(=O)NCCNC(=O)C1CCC(N(C)c2ncc(-c3cccc(Nc4cc(C)ccn4)n3)s2)CC1 (stereo not drawn) [Compound A-494, N-(2-acetylaminoethyl)-4-(N′-methyl-N′-{5-[6-(4-methylpyridin-2-ylamino)pyridin-2-yl]thiazol-2-yl}amino)cyclohexanecarboxamide] |  | < 100 |
| Cc1ccnc(Nc2cccc(-c3cnc(N(C)C4CCC(C(=O)N5CCC(O)CC5)CC4)s3)n2)c1 (stereo not drawn) [Compound A-495] |  | 100 to 1000 |
| C=CCN(CC=C)c1ncc(-c2cccc(Nc3cc(C)ccn3)n2)s1 [Compound A-507, N,N-diallyl-N-{5-[6-(4-methylpyridin-2-ylamino)pyridin-2-yl]thiazol-2-yl}amine] |  | < 100 |
| Cc1ccnc(Nc2cccc(-c3cnc(N(C)C4CCN(C(=O)N(C)C)CC4)s3)n2)c1 [Compound A-511, N,N-dimethyl-4-(N′-methyl-N′-{5-[6-(4-methylpyridin-2-ylamino)pyridin-2-yl]thiazol-2-yl}amino)piperidine-1-carboxamide] |  | < 100 |
| CC(=O)NCCN(c1ncc(-c2cccc(Nc3cc(C)ccn3)n2)s1)C1CCN(C(C)=O)CC1 [Compound A-521] |  | 100 to 1000 |
| COC(=O)NCCN(c1ncc(-c2cccc(Nc3cc(C)ccn3)n2)s1)C1CCN(C(C)=O)CC1 [Compound A-522] |  | 100 to 1000 |
| Cc1ccnc(Nc2cccc(-c3cnc(N4CCC[C@H]4C(=O)O)s3)n2)c1 [Compound A-527] |  | 100 to 1000 |
| CN(CCO)c1ncc(-c2cccc(Nc3cc(CC(=O)O)ccn3)n2)s1 [Compound A-550] |  | 100 to 1000 |
| Cc1ccnc(Nc2cccc(-c3cnc(N(C)CC(=O)O)s3)n2)c1 [Compound A-555] |  | 100 to 1000 |
| O=C(O)Cc1ccnc(Nc2cccc(-c3cnc(N4CC[C@@H](O)C4)s3)n2)c1 [Compound A-557] |  | 100 to 1000 |
| Cc1ccnc(Nc2cccc(-c3cnc(N4C[C@H](O)C[C@H]4C(=O)O)s3)n2)c1 [Compound A-569] |  | 100 to 1000 |
| COC(=O)N(CC(=O)O)Cc1ncc(-c2cccc(Nc3cc(C)ccn3)n2)s1 [Compound A-583] |  | 100 to 1000 |

The next lines start with the values.

| IC50 [1] [nM] | IC50 (Tables 1-x, compounds A) [nM] | Compound |
| --- | --- | --- |
| < 100 |  | Cc1ccnc(Nc2cccc(-c3cnc(N4CCC(C(C)(C)C(=O)O)CC4)s3)n2)c1 [Compound A-18, 2-methyl-2-(1-{5-[6-(4-methylpyridin-2-ylamino)pyridin-2-yl]thiazol-2-yl}piperidin-4-yl)propionic acid] |
| 100 to 1000 |  | Cc1ccnc(Nc2cccc(-c3cnc([C@@H](N)CCCCN)s3)n2)c1 [Compound A-63] |
| > 1000 |  | CNC(=O)c1nc([C@H](C)NC(C)=O)sc1-c1cccc(Nc2cc(C)ccn2)n1 [Compound A-118] |
| 100 to 1000 |  | Cc1ccnc(Nc2cccc(-c3cnc(CCc4cccc(C(=O)N5CCC(O)CC5)c4)s3)n2)c1 [Compound A-281] |
| 100 to 1000 |  | CCOC(=O)Cc1ccnc(Nc2cccc(-c3cnc([C@H](C)NC(C)=O)s3)n2)c1 [Compound A-329] |
|  | 100 to 1000 | Cc1ccnc(Nc2cccc(-c3cnc(N4CCC(C(=O)N(C)CCO)CC4)s3)n2)c1 [Compound A-448] |
|  | 100 to 1000 | COCCN(C)C(=O)C1CCN(c2ncc(-c3cccc(Nc4cc(C)ccn4)n3)s2)CC1 [Compound A-451] |
|  | 100 to 1000 | Cc1ccnc(Nc2cccc(-c3cnc(N4CCC(C(=O)NC(C)(C)CO)CC4)s3)n2)c1 [Compound A-455] |
|  | < 100 | Cc1ccnc(Nc2cccc(-c3cnc(N4CCN(CC(=O)NCCO)C(=O)C4)s3)n2)c1 [Compound A-468, N-(2-hydroxyethyl)-2-(4-{5-[6-(4-methylpyridin-2-ylamino)pyridin-2-yl]thiazol-2-yl}-2-oxopiperazin-1-yl)acetamide] |
|  | < 100 | Cc1ccnc(Nc2cccc(-c3cnc(N4CCC(N(C)S(C)(=O)=O)CC4)s3)n2)c1 [Compound A-485, N-methyl-N-(1-{5-[6-(4-methylpyridin-2-ylamino)pyridin-2-yl]thiazol-2-yl}piperidin-4-yl)methanesulfonamide] |
|  | 100 to 1000 | CNC(=O)C(C)(C)NC(=O)C1CCN(c2ncc(-c3cccc(Nc4cc(C)ccn4)n3)s2)CC1 [Compound A-491] |
|  | 100 to 1000 | Cc1ccnc(Nc2cccc(-c3cnc(N(C)C4CCC(C(=O)N[C@H]5CC[C@H](O)CC5)CC4)s3)n2)c1 (stereo partly drawn) [Compound A-496] |
|  | 100 to 1000 | Cc1ccnc(Nc2cccc(-c3cnc(N(C)C4CCN(C(=O)C5CC5)CC4)s3)n2)c1 [Compound A-512] |
|  | 100 to 1000 | CC(=O)N1CCC(N(CCNC(=O)N(C)C)c2ncc(-c3cccc(Nc4cc(C)ccn4)n3)s2)CC1 [Compound A-523] |
|  | 100 to 1000 | NC(=O)[C@@H]1CCCN1c1ncc(-c2cccc(Nc3cc(CC(=O)O)ccn3)n2)s1 [Compound A-559] |
|  | 100 to 1000 | Cc1ccnc(Nc2cccc(-c3cnc(N4CCC[C@H]4C(=O)N[C@@H](C)C(=O)O)s3)n2)c1 [Compound A-566] |
|  | 100 to 1000 | COC(=O)c1cccc(CN(C)c2ncc(-c3cccc(Nc4cc(C)ccn4)n3)s2)c1 [Compound A-581] |
|  | 100 to 1000 | COC(=O)N(CCC(=O)O)Cc1ncc(-c2cccc(Nc3cc(C)ccn3)n2)s1 [Compound A-584] |
|  | 100 to 1000 | COC(=O)N(CCCC(=O)O)Cc1ncc(-c2cccc(Nc3cc(C)ccn3)n2)s1 [Compound A-585] |
